Results as given in PubChem BioAssay AID1259407 (Chemical Carcinogenesis Research Information System (CCRIS), 2018).
Activity calls are given as the source filed them. The rule behind the calls is not given here.

Test system: CCRIS mutagenicity, Ames/micronucleus/aberration tests
Assay: CCRIS mutagenicity studies
[1] = Test System: AMES SALMONELLA TYPHIMURIUM, Strain/Indicator: TA100, Metabolic Activation: NONE, Method: STANDARD PLATE
[2] = Test System: AMES SALMONELLA TYPHIMURIUM, Strain/Indicator: TA100, Metabolic Activation: NONE, Method: PREINCUBATION
[3] = Test System: AMES SALMONELLA TYPHIMURIUM, Strain/Indicator: TA98, Metabolic Activation: NONE, Method: PREINCUBATION
[4] = Test System: AMES SALMONELLA TYPHIMURIUM, Strain/Indicator: TA98, Metabolic Activation: RAT, LIVER, S-9, AROCLOR 1254, Method: PREINCUBATION
[5] = Test System: AMES SALMONELLA TYPHIMURIUM, Strain/Indicator: TA100, Metabolic Activation: RAT, LIVER, S-9, AROCLOR 1254, Method: PREINCUBATION
[6] = Test System: AMES SALMONELLA TYPHIMURIUM, Strain/Indicator: TA98, Metabolic Activation: NONE, Method: STANDARD PLATE
[7] = Test System: AMES SALMONELLA TYPHIMURIUM, Strain/Indicator: TA1535, Metabolic Activation: NONE, Method: PREINCUBATION
[8] = Test System: AMES SALMONELLA TYPHIMURIUM, Strain/Indicator: TA1537, Metabolic Activation: NONE, Method: PREINCUBATION
[9] = Test System: AMES SALMONELLA TYPHIMURIUM, Strain/Indicator: TA1535, Metabolic Activation: NONE, Method: STANDARD PLATE
[10] = Test System: AMES SALMONELLA TYPHIMURIUM, Strain/Indicator: TA100, Metabolic Activation: RAT, LIVER, S-9, AROCLOR 1254, Method: STANDARD PLATE

N#C[Se]Cc1ccccc1
mutagenic call (Test System: AMES SALMONELLA TYPHIMURIUM, Strain/Indicator: TA97A, Metabolic Activation: NONE, Method: STANDARD PLATE): inactive; negative
mutagenic call [1]: active; positive

CCCCN(C[C@H](CO)OCc1ccccc1)N=O
mutagenic call [2]: inactive; negative
mutagenic call (Test System: AMES SALMONELLA TYPHIMURIUM, Strain/Indicator: TA100, Metabolic Activation: RAT, LIVER, S-9, PCB, Method: PREINCUBATION): active; positive

Cc1ccc(C=O)cc1
mutagenic call [3]: inactive; negative
mutagenic call [4]: inactive; negative
mutagenic call [2]: inactive; negative
mutagenic call [5]: inactive; negative
mutagenic call (Test System: AMES SALMONELLA TYPHIMURIUM, Strain/Indicator: TA102, Metabolic Activation: NONE, Method: PREINCUBATION): inactive; negative
mutagenic call (Test System: AMES SALMONELLA TYPHIMURIUM, Strain/Indicator: TA102, Metabolic Activation: RAT, LIVER, S-9, AROCLOR 1254, Method: PREINCUBATION): inactive; negative

CC(=O)OCc1c2ccccc2cc2ccc3ccccc3c12
mutagenic call [6]: active; positive
mutagenic call [1]: active; positive

CCCCCCc1ccc(-c2ccc(C#N)cc2)cc1
mutagenic call (Test System: AMES SALMONELLA TYPHIMURIUM, Strain/Indicator: TA97, Metabolic Activation: HAMSTER, LIVER, S-9, AROCLOR 1254 (10 OR 30%), Method: PREINCUBATION): inactive; negative
mutagenic call (Test System: AMES SALMONELLA TYPHIMURIUM, Strain/Indicator: TA97, Metabolic Activation: NONE, Method: PREINCUBATION): inactive; negative
mutagenic call (Test System: AMES SALMONELLA TYPHIMURIUM, Strain/Indicator: TA97, Metabolic Activation: RAT, LIVER, S-9, AROCLOR 1254 (10 OR 30%), Method: PREINCUBATION): inactive; negative
mutagenic call (Test System: AMES SALMONELLA TYPHIMURIUM, Strain/Indicator: TA98, Metabolic Activation: HAMSTER, LIVER, S-9, AROCLOR 1254 (10 OR 30%), Method: PREINCUBATION): inactive; negative
mutagenic call [3]: inactive; negative
mutagenic call (Test System: AMES SALMONELLA TYPHIMURIUM, Strain/Indicator: TA98, Metabolic Activation: RAT, LIVER, S-9, AROCLOR 1254 (10 OR 30%), Method: PREINCUBATION): inactive; negative
mutagenic call (Test System: AMES SALMONELLA TYPHIMURIUM, Strain/Indicator: TA100, Metabolic Activation: HAMSTER, LIVER, S-9, AROCLOR 1254 (10 OR 30%), Method: PREINCUBATION): inactive; negative
mutagenic call [2]: inactive; negative
mutagenic call (Test System: AMES SALMONELLA TYPHIMURIUM, Strain/Indicator: TA100, Metabolic Activation: RAT, LIVER, S-9, AROCLOR 1254 (10 OR 30%), Method: PREINCUBATION): inactive; negative
mutagenic call (Test System: AMES SALMONELLA TYPHIMURIUM, Strain/Indicator: TA1535, Metabolic Activation: HAMSTER, LIVER, S-9, AROCLOR 1254 (10 OR 30%), Method: PREINCUBATION): inactive; negative
mutagenic call [7]: inactive; negative
mutagenic call (Test System: AMES SALMONELLA TYPHIMURIUM, Strain/Indicator: TA1535, Metabolic Activation: RAT, LIVER, S-9, AROCLOR 1254 (10 OR 30%), Method: PREINCUBATION): inactive; negative
mutagenic call (Test System: AMES SALMONELLA TYPHIMURIUM, Strain/Indicator: TA1537, Metabolic Activation: HAMSTER, LIVER, S-9, AROCLOR 1254 (10 OR 30%), Method: PREINCUBATION): inactive; negative
mutagenic call [8]: inactive; negative
mutagenic call (Test System: AMES SALMONELLA TYPHIMURIUM, Strain/Indicator: TA1537, Metabolic Activation: RAT, LIVER, S-9, AROCLOR 1254 (10 OR 30%), Method: PREINCUBATION): inactive; negative

CC(=O)OCN(CCCCCl)N=O
mutagenic call (Test System: AMES SALMONELLA TYPHIMURIUM, Strain/Indicator: TA92, Metabolic Activation: NONE, Method: STANDARD PLATE): active; positive
mutagenic call [9]: active; positive

O=C1c2ccccc2C(=O)N1SC(Cl)(Cl)Cl
mutagenic call [6]: inactive; negative
mutagenic call [2]: active; positive
mutagenic call [10]: active; positive
mutagenic call (Test System: AMES SALMONELLA TYPHIMURIUM, Strain/Indicator: TA100, Metabolic Activation: RAT, LIVER, S-9, Method: STANDARD PLATE): active; positive
mutagenic call (Test System: AMES SALMONELLA TYPHIMURIUM, Strain/Indicator: TA100, Metabolic Activation: S-9 MIX, Method: STANDARD PLATE): active; positive
mutagenic call (Test System: AMES SALMONELLA TYPHIMURIUM, Strain/Indicator: TA102, Metabolic Activation: NONE, Method: STANDARD PLATE): inactive; negative
mutagenic call (Test System: AMES SALMONELLA TYPHIMURIUM, Strain/Indicator: TA104, Metabolic Activation: NONE, Method: STANDARD PLATE): active; positive
mutagenic call (Test System: AMES SALMONELLA TYPHIMURIUM, Strain/Indicator: TA104, Metabolic Activation: RAT, LIVER, S-9, PHENOBARBITAL, Method: STANDARD PLATE): active; positive
mutagenic call [9]: active; positive
mutagenic call (Test System: AMES SALMONELLA TYPHIMURIUM, Strain/Indicator: TA1535, Metabolic Activation: RAT, LIVER, S-9, AROCLOR 1254, Method: STANDARD PLATE): active; positive
mutagenic call (Test System: E. COLI, Strain/Indicator: WP2, Metabolic Activation: NONE, Method: STANDARD PLATE): active; positive
mutagenic call (Test System: E. COLI, Strain/Indicator: WP2, Metabolic Activation: RAT, LIVER, S-9, Method: STANDARD PLATE): active; positive
mutagenic call (Test System: E. COLI, Strain/Indicator: WP2 UVRA, Metabolic Activation: NONE, Method: STANDARD PLATE): active; positive
mutagenic call (Test System: E. COLI, Strain/Indicator: WP2 UVRA, Metabolic Activation: RAT, LIVER, S-9, AROCLOR 1254, Method: STANDARD PLATE): active; positive

CSC[C@H](NC(=O)C(C)(C)SC)C(=O)O
mutagenic call [3]: inactive; negative
mutagenic call [2]: inactive; negative
mutagenic call [7]: inactive; negative
mutagenic call [8]: inactive; negative
mutagenic call (Test System: AMES SALMONELLA TYPHIMURIUM, Strain/Indicator: TA1538, Metabolic Activation: NONE, Method: PREINCUBATION): inactive; negative
mutagenic call (Test System: E. COLI, Strain/Indicator: WP2, Metabolic Activation: NONE, Method: PREINCUBATION): inactive; negative
mutagenic call (Test System: E. COLI, Strain/Indicator: WP2 UVRA, Metabolic Activation: NONE, Method: PREINCUBATION): inactive; negative

O=NN1CCSC1C(O)C(O)C(O)C(O)CO (stereo not given)
mutagenic call [3]: inactive; negative
mutagenic call [6]: inactive; negative
mutagenic call [4]: inactive; negative
mutagenic call (Test System: AMES SALMONELLA TYPHIMURIUM, Strain/Indicator: TA98, Metabolic Activation: RAT, LIVER, S-9, AROCLOR 1254, Method: STANDARD PLATE): inactive; negative
mutagenic call [2]: active; positive
mutagenic call [1]: active; positive
mutagenic call [5]: active; positive
mutagenic call [10]: active; positive

Cc1cccn2c1nc1ccc(NO)nc12
mutagenic call [3]: active; positive
mutagenic call (Test System: AMES SALMONELLA TYPHIMURIUM, Strain/Indicator: YG1020, Metabolic Activation: NONE, Method: PREINCUBATION): active; positive
mutagenic call (Test System: AMES SALMONELLA TYPHIMURIUM, Strain/Indicator: YG1021, Metabolic Activation: NONE, Method: PREINCUBATION): active; positive
mutagenic call (Test System: AMES SALMONELLA TYPHIMURIUM, Strain/Indicator: YG1024, Metabolic Activation: NONE, Method: PREINCUBATION): active; positive
mutagenic call (Test System: AMES SALMONELLA TYPHIMURIUM, Strain/Indicator: YG1025, Metabolic Activation: NONE, Method: PREINCUBATION): inactive; negative
mutagenic call (Test System: AMES SALMONELLA TYPHIMURIUM, Strain/Indicator: YG1029, Metabolic Activation: NONE, Method: PREINCUBATION): active; positive
mutagenic call (Test System: AMES SALMONELLA TYPHIMURIUM, Strain/Indicator: YG1041, Metabolic Activation: NONE, Method: PREINCUBATION): active; positive
